Drawing on PubChem BioAssay (NCI), this text covers GI50 and TGI for ten compounds.

Test systems include HCC-2998 colon; RXF 393 renal; SF-295 CNS; IGROV1 ovarian; NCI-H23 lung; HCT-116 colon; PC-3 prostate; KM12 colon; OVCAR-3 ovarian; K-562 leukemia.
Common to all, as to assay: growth of human tumour cells (NCI), 48 h

The structures appear in SMILES notation. Several values for one entry are separate records, joined by “and”; a condition that tells them apart may be missing. Equal entries are not always repeated.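 A five-concentration, 48-hour dose response in 96-well plates underlies each endpoint, interpolated linearly between surrounding concentrations. GI50: concentration for 50% inhibition of growth. TGI is the concentration that stops growth completely.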 Where a SMILES comes first, the peptide text is derived from it. [ ]: non-standard residue; d: D form. ξ: configuration not given here. Pentanoyl(2-O,4-OH,5-Cl) = O=C(O)C(O)CC(O)CCl; Ile(3ξ) = CCC(C)[C@H](N)C(=O)O; NMeV = CN[C@H](C(=O)O)C(C)C; NMeA = CN[C@@H](C)C(=O)O; βAla = NCCC(=O)O A value given as a limit tells only on which side of the number the result lay.

Consider `Cc1ccc(/C=C/C(=O)c2ccc(F)cc2)s1`, for which the GI50 in the test on HCC-2998 colon is 2.2 µM; in the test with RXF 393 renal it was 1.82 µM; with SF-295 CNS, 5.38 µM; in the test on IGROV1 ovarian, 2.17 µM; in the test with NCI-H23 lung it was 3.67 µM; with HCT-116 colon it was 1.86 µM. In addition, the GI50 in the test with PC-3 prostate is 2.64 µM; in the test on KM12 colon, 2.75 µM; in the test on OVCAR-3 ovarian it was 1.8 µM. Also, the TGI in the test on HCC-2998 colon was 5.14 µM; with RXF 393 renal it was 4.04 µM; with SF-295 CNS, 18.8 µM; in the test with IGROV1 ovarian, 5.25 µM; in the test with NCI-H23 lung it was 16.5 µM; in the test with HCT-116 colon it was 3.37 µM. Besides, the TGI came to 7.11 µM in the test on PC-3 prostate, 7.52 µM with KM12 colon and 3.29 µM in the test on OVCAR-3 ovarian.

Turning to `Oc1ccc(CCNc2nc3ccccc3c3[nH]c4ccccc4c23)cc1O`, the GI50 in the test with K-562 leukemia was 1.83 µM; with HCC-2998 colon, 3.54 µM; with RXF 393 renal it was 1.91 µM; in the test on SF-295 CNS, 5.51 µM; in the test with NCI-H23 lung, 6.87 µM; in the test on HCT-116 colon, 1.4 µM. Also, the GI50 in the test with PC-3 prostate was 1.51 µM; in the test on KM12 colon it was 1.59 µM; in the test with OVCAR-3 ovarian, 1.77 µM. For the same compound, the TGI with K-562 leukemia is 4.13 µM; with HCC-2998 colon, 14.1 µM; in the test on RXF 393 renal it was 3.59 µM; with SF-295 CNS it was > 100 µM; in the test on NCI-H23 lung it was 22.7 µM; in the test on HCT-116 colon it was 2.7 µM. For the same compound, the TGI with PC-3 prostate was determined as 3.63 µM; in the test with KM12 colon it was 4.19 µM; in the test with OVCAR-3 ovarian it was 3.7 µM.

In the case of `CCN(Cc1ccccc1)c1ccc(/C=C2\COc3ccccc3C2=O)cc1`, the GI50 with HCC-2998 colon is > 1000 µM; in the test with RXF 393 renal it was 758 µM; in the test with SF-295 CNS it was > 1000 µM; in the test on IGROV1 ovarian, > 1000 µM; in the test on NCI-H23 lung it was 818 µM; in the test with HCT-116 colon, 270 µM. For the same compound, the GI50 in the test on PC-3 prostate was 343 µM; in the test on KM12 colon, 376 µM; with OVCAR-3 ovarian, 288 µM. Further, the TGI in the test on HCC-2998 colon, with RXF 393 renal, in the test on SF-295 CNS, with IGROV1 ovarian, with NCI-H23 lung and in the test on HCT-116 colon was > 1000 µM each time. Besides, the TGI in the test on PC-3 prostate, with KM12 colon and in the test with OVCAR-3 ovarian was > 1000 µM in each case.

`CCN(CC)CCN1C(=O)C2C3C(C)=CC(OC(C)=O)(CC3C)C2C1=O` (stereo unspecified): the GI50 in the test on K-562 leukemia, in the test on HCC-2998 colon, in the test with RXF 393 renal, in the test with SF-295 CNS, in the test on IGROV1 ovarian and in the test with NCI-H23 lung was > 100 µM each time. The GI50 in the test on HCT-116 colon, in the test on PC-3 prostate and in the test on KM12 colon was > 100 µM each time. The TGI in the test with K-562 leukemia, in the test with HCC-2998 colon, with RXF 393 renal, in the test with SF-295 CNS, with IGROV1 ovarian and in the test on NCI-H23 lung was > 100 µM in each case. Besides, the TGI with HCT-116 colon, with PC-3 prostate and with KM12 colon was > 100 µM throughout.

Turning to `Nc1nc(N)c2cc(S(=O)(=O)c3cccc(C(F)(F)F)c3)ccc2n1`, the GI50 in the test on K-562 leukemia was 0.682 µM; in the test on HCC-2998 colon, 5.03 µM; with RXF 393 renal it was 3.8 µM; in the test on SF-295 CNS it was 2.57 µM; in the test on IGROV1 ovarian, 5.28 µM; with NCI-H23 lung, 3.63 µM. The GI50 in the test on HCT-116 colon is 1.47 µM; with PC-3 prostate, 3.36 µM; in the test with OVCAR-3 ovarian, 6 µM. The TGI is > 100 µM in the test on K-562 leukemia; > 100 µM in the test with HCC-2998 colon; 57.8 µM with RXF 393 renal; 97.5 µM in the test with SF-295 CNS; > 100 µM in the test on IGROV1 ovarian; > 100 µM in the test on NCI-H23 lung. In addition, the TGI in the test with HCT-116 colon, with PC-3 prostate and in the test with OVCAR-3 ovarian was > 100 µM in each case.

With `O=c1cc(-c2cccc(Cl)c2)[nH]c2cc3c(cc12)OCO3`, the TGI in the test with HCC-2998 colon is 4.97 µM; in the test on RXF 393 renal, 75 µM and 9.8 µM; in the test on NCI-H23 lung it was 3.45 µM and 13.2 µM; with PC-3 prostate, > 100 µM; in the test with KM12 colon, 28.1 µM. The GI50 in the test with RXF 393 renal was 0.164 µM and 0.626 µM; in the test with IGROV1 ovarian it was 3.54 µM; with NCI-H23 lung it was 3.37 µM.

Take `CCCCCCCCCCCC(c1ccccc1)[N+](C)(C)C` (stereo unspecified): the GI50 in the test with K-562 leukemia is 0.673 µM; in the test with RXF 393 renal it was 0.451 µM; with SF-295 CNS, 2.32 µM; in the test with IGROV1 ovarian it was 0.417 µM; with NCI-H23 lung, 1 µM; with PC-3 prostate, 0.393 µM. Further, the GI50 with KM12 colon was 0.511 µM; in the test with OVCAR-3 ovarian, 0.815 µM. In addition, the TGI came to 4.09 µM with K-562 leukemia; 2.26 µM in the test with RXF 393 renal; 8.9 µM in the test with SF-295 CNS; 1.79 µM in the test with IGROV1 ovarian; 5.86 µM with NCI-H23 lung; 2.52 µM with PC-3 prostate. Also, the TGI was determined as 1.78 µM with KM12 colon and 2.35 µM in the test on OVCAR-3 ovarian.

Consider `CCC(C)[C@@H]1NC(=O)[C@@H]2CCCN2C(=O)C(CC(O)CCl)OC(=O)CCNC(=O)[C@H](C)N(C)C(=O)[C@H](C(C)C)N(C)C1=O` (stereo partly specified) (cyclo([Ile(3ξ)][NMeV][NMeA][βAla][Pentanoyl(2-O,4-OH,5-Cl)]P)), for which the TGI with K-562 leukemia is > 100 µM; with RXF 393 renal, > 100 µM; with SF-295 CNS, 70.4 µM; in the test on IGROV1 ovarian it was > 100 µM; in the test on NCI-H23 lung, > 100 µM; in the test with HCT-116 colon, > 100 µM. In addition, the TGI with PC-3 prostate, in the test with KM12 colon and with OVCAR-3 ovarian was > 100 µM throughout.

Turning to `COc1ccc(CC(C)NCC(O)c2ccc(O)c(NC=O)c2)cc1` (stereo unspecified), the TGI in the test with K-562 leukemia, in the test with RXF 393 renal, with SF-295 CNS, with IGROV1 ovarian, in the test on NCI-H23 lung and in the test on HCT-116 colon was > 100 µM in each case. Moreover, the TGI in the test on PC-3 prostate, in the test with KM12 colon and in the test on OVCAR-3 ovarian was > 100 µM each time.

In the case of `O=c1oc2ccccc2cc1P(=O)(O)O`, the TGI with K-562 leukemia, in the test on HCC-2998 colon, in the test with RXF 393 renal, in the test with SF-295 CNS, with IGROV1 ovarian and in the test with NCI-H23 lung was > 100 µM in each case. The TGI in the test on HCT-116 colon, in the test with PC-3 prostate and in the test on OVCAR-3 ovarian was > 100 µM in each case.
